The source made the active and inactive calls.
Legend:
SUMO-activating enzyme [1] = target: T1, SUMO-activating enzyme (Homo sapiens, UniProt Q9UBT2); test: SUMOylation inhibitor hit validation, confirmation, SUMOylation inhibitor project, biochemical, AlphaScreen (AID 2018); type: functional
SUMO-activating enzyme [2] = target: T1, SUMO-activating enzyme; test: inhibitors of in vitro SUMOylation cascade, primary screen, biochemical, HTRF, uHTS (AID 2006); type: protein-complex assay
[3] = target: Protein-tyrosine kinase 2-beta (Homo sapiens, UniProt Q14289);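 further: potency of inhibitors of PYK2 kinase phosphorylation of poly-GT substrate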
Hexokinase = Hexokinase (Trypanosoma brucei, UniProt Q38C41); test: Confirmation assay for inhibitors of Trypanosoma brucei hexokinase 1-Analogue-first series. [Related pubchem assays (depositor defined):AID1430, AID1632, AID2516, AID2560, AID2579, AID2600, AID449725, AID492951]; type: functional
[4] = target: T2, Tyrosine-protein phosphatase non-receptor type 7 (Homo sapiens, UniProt P35236); test: Dose Response confirmation of compounds that inhibit HePTP. [Related pubchem assays (depositor defined):AID1059, AID1661, AID2085]; type: functional
T2 sequence (P35236 whole entry): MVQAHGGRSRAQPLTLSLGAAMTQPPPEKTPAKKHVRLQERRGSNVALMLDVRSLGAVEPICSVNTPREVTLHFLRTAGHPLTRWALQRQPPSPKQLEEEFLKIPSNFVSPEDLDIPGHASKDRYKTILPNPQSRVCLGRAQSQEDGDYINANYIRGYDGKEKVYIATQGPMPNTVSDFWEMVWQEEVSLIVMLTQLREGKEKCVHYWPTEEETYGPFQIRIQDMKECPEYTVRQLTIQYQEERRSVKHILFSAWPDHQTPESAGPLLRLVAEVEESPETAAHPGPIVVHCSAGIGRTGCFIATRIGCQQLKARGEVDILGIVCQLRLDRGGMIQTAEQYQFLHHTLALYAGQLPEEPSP

[5] = target: T3, Low molecular weight phosphotyrosine protein phosphatase (Homo sapiens, UniProt P24666); type: functional; conditions: read-out: IC50_Mean;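 further: Dose-response confirmation assay measuring inhibition of LMPTP enzyme activity by fluorescence intensity read-out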
T3 sequence (P24666 whole entry): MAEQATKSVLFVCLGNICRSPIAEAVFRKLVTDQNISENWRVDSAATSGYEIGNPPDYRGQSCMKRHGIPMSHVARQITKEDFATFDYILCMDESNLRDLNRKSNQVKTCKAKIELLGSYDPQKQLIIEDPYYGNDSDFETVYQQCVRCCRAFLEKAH

[6] = target: T4, Dual specificity protein phosphatase 3 (Homo sapiens, UniProt P51452); test: Dose Response Confirmation of compounds that inhibit VHR1 in Fluorescent Assay. [Related pubchem assays (depositor defined):AID1661, AID1878]; type: functional
[7] = target: Sphingosine 1-phosphate receptor 4 (Homo sapiens, UniProt O95977); test: S1P4 receptor agonists, human, late-stage follow-up, cell-based, fluorescence, synthesized compounds (AID 463107); type: functional
[8] = target: T5, Voltage-gated N-type calcium channel alpha-1B subunit/Amyloid beta A4 precursor protein-binding family A member 1 (Homo sapiens, UniProt Q00975+Q02410); test: disruptors of Mint-PDZ/N-type channel peptide interaction – biochemical, HTRF, set 2, SAR follow-up (AID 434980); type: functional
[9] = target: Phosphoethanolamine/phosphocholine phosphatase (Homo sapiens, UniProt Q8TCT1); test: SAR assay for compounds that inhibit PHOSPHO1. [Related pubchem assays (depositor defined):AID1545, AID1565, AID1574]
[10] = target: T5, Voltage-gated N-type calcium channel alpha-1B subunit/Amyloid beta A4 precursor protein-binding family A member 1; type: protein assay
[11] = target: Glucose-6-phosphate 1-dehydrogenase (Homo sapiens, UniProt P11413); test: human G6PD enzyme inhibitors, dose response, selectivity assay for P. falciparum G6PD inhibitor project, biochemical, fluorescence (AID 504792); type: functional
[12] = target: T5, Voltage-gated N-type calcium channel alpha-1B subunit/Amyloid beta A4 precursor protein-binding family A member 1; type: protein assay; remark: listed apart in the source
Large T antigen = Large T antigen (Simian virus 40, UniProt P03070); type: functional, Betapolyomavirus macacae;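 further: Confirmatory-stage PubChem screen for compounds that inhibit SV40 T antigen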
[13] = target: T6, Mannose-6-phosphate isomerase (Homo sapiens, UniProt P34949); test: human PMI inhibitors, high substrate, primary screen, biochemical, fluorescence intensity, high mannose 6-phosphate (AID 1220)
T6 sequence (P34949 whole entry): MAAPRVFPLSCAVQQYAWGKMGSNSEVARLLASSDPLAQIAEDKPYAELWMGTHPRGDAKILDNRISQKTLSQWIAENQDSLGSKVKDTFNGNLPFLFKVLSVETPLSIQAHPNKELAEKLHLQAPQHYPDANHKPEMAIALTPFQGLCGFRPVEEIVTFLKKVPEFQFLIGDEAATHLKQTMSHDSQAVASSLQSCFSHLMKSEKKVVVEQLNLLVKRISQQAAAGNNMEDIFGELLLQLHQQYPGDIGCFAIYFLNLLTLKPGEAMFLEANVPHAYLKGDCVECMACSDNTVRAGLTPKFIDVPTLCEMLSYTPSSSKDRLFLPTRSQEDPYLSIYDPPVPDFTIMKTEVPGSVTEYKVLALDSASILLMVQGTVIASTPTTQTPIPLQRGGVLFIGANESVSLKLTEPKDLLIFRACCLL

[14] = target: Eukaryotic translation initiation factor 4E (Mus musculus, UniProt P63073); test: eIF4E–eIF4G protein interaction inhibitors, dose response, biochemical, TR-FRET (AID 855); type: functional;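 further: potency for disrupting eIF4E binding to eIF4GI seen as loss of FRET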
[15] = target: T5, Voltage-gated N-type calcium channel alpha-1B subunit/Amyloid beta A4 precursor protein-binding family A member 1; test: disruptors of Mint-PDZ/N-type channel peptide interaction – biochemical, HTRF, SAR follow-up (AID 2489); type: functional
Caspase-3 = target: T7, Caspase-3 (Homo sapiens, UniProt P42574); test: procaspase-3 activators, dose response, biochemical, absorbance (AID 489014)
T7 sequence (P42574 whole entry): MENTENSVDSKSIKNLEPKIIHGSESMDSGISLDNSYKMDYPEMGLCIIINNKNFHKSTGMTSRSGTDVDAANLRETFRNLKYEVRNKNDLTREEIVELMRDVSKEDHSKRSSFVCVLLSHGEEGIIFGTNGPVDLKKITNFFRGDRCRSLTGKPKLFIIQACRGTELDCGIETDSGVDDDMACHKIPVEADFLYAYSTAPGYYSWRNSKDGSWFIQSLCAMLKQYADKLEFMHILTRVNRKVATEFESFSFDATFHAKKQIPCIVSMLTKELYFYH

Caspase-7 = Caspase-7 (Homo sapiens, UniProt P55210); test: procaspase-7 activators, dose response, counter-screen for procaspase-3 activator project, biochemical, absorbance (AID 489013)
[16] = target: T8, Kappa-type opioid receptor (Homo sapiens, UniProt P41145); test: SAR analysis of Antagonists of the Kappa Opioid Receptor (KOR) using an Image-Based Assay - Set 4. [Related pubchem assays (depositor defined):AID1777, AID1785]; type: functional
Mu-type opioid receptor = Mu-type opioid receptor (Homo sapiens, UniProt P35372); test: SAR Analysis of Antagonists of the MOR Receptor using an Image-Based Assay - Set 3. [Related pubchem assays (depositor defined):AID1777, AID1785, AID1786, AID1966, AID2133, AID2136, AID2284, AID2285, AID2420]; type: functional
[17] = target: T8, Kappa-type opioid receptor; test: SAR analysis of small molecule antagonists of the kappa opioid receptor via a luminescent beta-arrestin assay - Set 6. [Related pubchem assays (depositor defined):AID1777, AID1778, AID1785, AID1786, AID1966, AID2133, AID2136, AID2285]; type: functional
[18] = target: T8, Kappa-type opioid receptor; test: SAR analysis of small molecule antagonists of the kappa opioid receptor via a luminescent beta-arrestin assay - Set 4. [Related pubchem assays (depositor defined):AID1777, AID1778, AID1785, AID1786, AID1966, AID2133, AID2136, AID2285]; type: functional
[19] = target: Delta-type opioid receptor (Homo sapiens, UniProt P41143); test: SAR Analysis of Antagonists of the DOR Receptor using an Image-Based Assay - Set 3. [Related pubchem assays (depositor defined):AID1777, AID1785]; type: functional;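 further: U2OS cells expressing DOR1 and beta-arrestin GFP stimulated with 100 nM SNC80; imaging of GFP-tagged beta-arrestin moving into spots after receptor activation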
[20] = target: Potassium voltage-gated channel subfamily KQT member 2 (Rattus norvegicus, UniProt O88943); test: retigabine-insensitive KCNQ2 potentiators, concentration-response, dose response, cell-based, retigabine-insensitive compounds (AID 2654); type: functional
Trypanosoma cruzi = test: growth inhibition of intracellular Trypanosoma cruzi, dose response, cell-based, plate reader, dry powder, set 3 (AID 493197); type: functional
[21] = cytotoxicity in NIH/3T3 mouse fibroblasts, dose response, cytotoxicity control, cell-based, mouse embryonic fibroblasts, dry powder, set 2 (AID 493247); type: functional; conditions: Fibroblast
[22] = target: T2, Tyrosine-protein phosphatase non-receptor type 7; test: SAR analysis of chemical inhibitors of HePTP using a Fluorescent assay - Set 2. [Related pubchem assays (depositor defined):AID1059, AID1077, AID1661, AID2085, AID521]; type: functional
[23] = target: T4, Dual specificity protein phosphatase 3; test: SAR VHR1 Fluorescent Assay for In Vitro dose response studies Set 2. [Related pubchem assays (depositor defined):AID1654, AID1661, AID1878]; type: functional
Perilipin-1/ABHD5 = Perilipin-1/ABHD5 (Homo sapiens, UniProt O60240+Q8WTS1); test: Luminescence-based biochemical high throughput dose response assay for inhibitors of the interaction of the lipase co-activator protein, abhydrolase domain containing 5 (ABHD5) with perilipin-1 (PLIN1) (2K validation set). [Related pubchem assays (depositor defined):AID493027, AID493057]
[24] = target: 1-acylglycerol-3-phosphate O-acyltransferase ABHD5/Perilipin-5 (Homo sapiens, UniProt Q00G26+Q8WTS1); test: Luminescence-based biochemical high throughput dose response assay for inhibitors of the interaction of the lipase co-activator protein, abhydrolase domain containing 5 (ABHD5) with perilipin-5 (MLDP; PLIN5) (2K validation set). [Related pubchem assays (depositor defined):AID493035, AID493241]
[25] = target: T9, Alkaline phosphatase, tissue-nonspecific isozyme (Homo sapiens, UniProt P05186); test: human TNAP enzyme inhibitors, SAR follow-up, biochemical, luminescent, dose response (AID 1056)
T9 sequence (P05186 whole entry): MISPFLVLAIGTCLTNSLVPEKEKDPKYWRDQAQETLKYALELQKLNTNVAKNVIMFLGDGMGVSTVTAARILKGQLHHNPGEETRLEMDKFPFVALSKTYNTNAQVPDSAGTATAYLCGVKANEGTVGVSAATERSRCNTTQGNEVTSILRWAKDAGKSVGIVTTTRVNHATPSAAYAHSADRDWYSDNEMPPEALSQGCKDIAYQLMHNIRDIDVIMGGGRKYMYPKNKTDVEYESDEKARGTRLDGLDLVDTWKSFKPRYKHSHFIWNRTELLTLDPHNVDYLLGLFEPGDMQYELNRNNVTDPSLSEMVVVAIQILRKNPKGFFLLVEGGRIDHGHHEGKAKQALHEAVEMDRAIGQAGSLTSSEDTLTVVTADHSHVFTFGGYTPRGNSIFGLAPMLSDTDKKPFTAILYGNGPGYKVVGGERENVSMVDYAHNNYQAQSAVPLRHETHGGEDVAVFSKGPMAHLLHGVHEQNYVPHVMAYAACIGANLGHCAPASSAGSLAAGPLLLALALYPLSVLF

[26] = target: Glyceraldehyde-3-phosphate dehydrogenase (Homo sapiens, UniProt P04406)
[27] = target: Alkaline phosphatase, placental type (Homo sapiens, UniProt P05187); test: PLAP enzyme inhibitors, confirmation, biochemical, luminescence (AID 1512); type: functional

T5 sequence (Q00975 whole entry): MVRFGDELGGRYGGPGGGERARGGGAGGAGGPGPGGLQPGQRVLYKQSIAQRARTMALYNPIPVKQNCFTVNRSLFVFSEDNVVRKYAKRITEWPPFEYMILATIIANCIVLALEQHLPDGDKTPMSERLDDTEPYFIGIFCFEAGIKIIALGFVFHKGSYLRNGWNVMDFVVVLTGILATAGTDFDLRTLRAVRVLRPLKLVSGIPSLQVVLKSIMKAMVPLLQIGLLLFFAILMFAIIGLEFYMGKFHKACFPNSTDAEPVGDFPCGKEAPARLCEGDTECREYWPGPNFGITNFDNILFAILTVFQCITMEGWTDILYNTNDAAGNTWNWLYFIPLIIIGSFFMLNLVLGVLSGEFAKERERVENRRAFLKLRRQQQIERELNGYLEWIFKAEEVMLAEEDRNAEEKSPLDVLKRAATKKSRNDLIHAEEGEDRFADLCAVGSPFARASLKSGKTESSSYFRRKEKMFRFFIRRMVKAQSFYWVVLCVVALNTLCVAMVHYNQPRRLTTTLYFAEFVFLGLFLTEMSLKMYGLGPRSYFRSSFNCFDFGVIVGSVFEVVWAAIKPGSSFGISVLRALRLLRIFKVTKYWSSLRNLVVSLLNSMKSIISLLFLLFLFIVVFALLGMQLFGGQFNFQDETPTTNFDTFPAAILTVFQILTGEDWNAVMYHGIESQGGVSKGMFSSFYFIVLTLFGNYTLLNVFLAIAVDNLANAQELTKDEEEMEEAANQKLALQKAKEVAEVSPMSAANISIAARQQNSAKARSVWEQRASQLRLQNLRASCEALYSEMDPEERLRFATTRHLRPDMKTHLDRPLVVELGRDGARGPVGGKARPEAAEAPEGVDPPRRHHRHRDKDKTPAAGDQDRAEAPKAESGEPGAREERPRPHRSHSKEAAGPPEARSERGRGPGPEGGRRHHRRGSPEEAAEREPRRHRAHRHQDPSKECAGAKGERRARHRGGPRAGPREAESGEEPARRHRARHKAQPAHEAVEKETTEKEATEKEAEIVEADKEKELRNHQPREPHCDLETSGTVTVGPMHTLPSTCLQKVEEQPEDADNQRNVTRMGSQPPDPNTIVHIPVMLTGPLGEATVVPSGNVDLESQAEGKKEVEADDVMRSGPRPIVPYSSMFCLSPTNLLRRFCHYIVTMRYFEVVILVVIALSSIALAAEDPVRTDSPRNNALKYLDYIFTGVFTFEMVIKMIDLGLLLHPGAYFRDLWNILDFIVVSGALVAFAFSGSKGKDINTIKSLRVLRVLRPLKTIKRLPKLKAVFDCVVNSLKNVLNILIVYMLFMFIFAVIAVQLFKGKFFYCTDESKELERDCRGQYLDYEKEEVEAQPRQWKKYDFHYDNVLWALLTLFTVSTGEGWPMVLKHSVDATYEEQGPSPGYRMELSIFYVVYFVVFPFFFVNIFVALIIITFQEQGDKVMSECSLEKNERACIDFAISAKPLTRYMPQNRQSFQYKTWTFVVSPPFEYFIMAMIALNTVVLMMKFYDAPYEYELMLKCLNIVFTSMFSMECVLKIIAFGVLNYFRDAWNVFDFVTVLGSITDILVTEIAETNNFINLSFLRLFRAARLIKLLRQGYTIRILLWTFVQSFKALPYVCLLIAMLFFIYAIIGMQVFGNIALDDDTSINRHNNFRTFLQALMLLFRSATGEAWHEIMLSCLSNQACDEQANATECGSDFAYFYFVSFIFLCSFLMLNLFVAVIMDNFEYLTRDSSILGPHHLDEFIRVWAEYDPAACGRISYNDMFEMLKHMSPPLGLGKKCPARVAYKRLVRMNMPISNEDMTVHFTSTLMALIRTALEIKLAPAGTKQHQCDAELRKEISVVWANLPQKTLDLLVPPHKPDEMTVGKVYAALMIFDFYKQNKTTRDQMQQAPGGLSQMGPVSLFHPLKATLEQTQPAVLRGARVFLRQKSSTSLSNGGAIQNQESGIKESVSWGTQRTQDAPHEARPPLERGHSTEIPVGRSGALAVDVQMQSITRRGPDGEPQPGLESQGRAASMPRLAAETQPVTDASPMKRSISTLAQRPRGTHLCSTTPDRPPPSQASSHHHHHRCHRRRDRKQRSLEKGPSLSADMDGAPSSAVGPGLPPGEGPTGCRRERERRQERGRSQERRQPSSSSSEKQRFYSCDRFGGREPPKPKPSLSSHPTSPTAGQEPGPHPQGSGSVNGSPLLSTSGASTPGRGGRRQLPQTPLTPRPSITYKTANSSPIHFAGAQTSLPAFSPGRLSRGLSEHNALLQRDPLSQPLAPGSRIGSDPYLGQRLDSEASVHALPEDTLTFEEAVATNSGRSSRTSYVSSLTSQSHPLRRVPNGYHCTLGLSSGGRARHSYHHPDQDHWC
T5 sequence (Q02410 whole entry): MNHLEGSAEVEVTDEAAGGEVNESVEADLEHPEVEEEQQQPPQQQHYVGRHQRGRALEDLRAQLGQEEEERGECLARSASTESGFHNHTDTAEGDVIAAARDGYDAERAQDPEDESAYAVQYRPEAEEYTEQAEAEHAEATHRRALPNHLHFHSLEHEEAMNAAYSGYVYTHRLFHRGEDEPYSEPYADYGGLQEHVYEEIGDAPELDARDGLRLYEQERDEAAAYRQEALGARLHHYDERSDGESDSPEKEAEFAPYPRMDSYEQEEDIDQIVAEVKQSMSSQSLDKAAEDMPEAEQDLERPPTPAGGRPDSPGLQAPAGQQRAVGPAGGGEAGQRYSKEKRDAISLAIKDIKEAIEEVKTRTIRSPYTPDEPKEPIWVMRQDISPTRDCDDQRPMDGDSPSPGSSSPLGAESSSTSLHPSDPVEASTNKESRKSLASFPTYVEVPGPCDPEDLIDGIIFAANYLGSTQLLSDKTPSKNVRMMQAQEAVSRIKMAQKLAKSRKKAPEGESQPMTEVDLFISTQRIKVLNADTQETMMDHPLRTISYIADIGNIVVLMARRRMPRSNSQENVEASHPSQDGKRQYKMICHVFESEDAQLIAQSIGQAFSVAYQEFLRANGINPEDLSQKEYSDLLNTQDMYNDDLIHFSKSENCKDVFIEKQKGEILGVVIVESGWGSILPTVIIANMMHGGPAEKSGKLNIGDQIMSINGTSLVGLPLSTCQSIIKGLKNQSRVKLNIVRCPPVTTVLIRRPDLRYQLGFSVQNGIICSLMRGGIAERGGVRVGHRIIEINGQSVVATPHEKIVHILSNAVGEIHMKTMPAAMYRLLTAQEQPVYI
T8 sequence (P41145 whole entry): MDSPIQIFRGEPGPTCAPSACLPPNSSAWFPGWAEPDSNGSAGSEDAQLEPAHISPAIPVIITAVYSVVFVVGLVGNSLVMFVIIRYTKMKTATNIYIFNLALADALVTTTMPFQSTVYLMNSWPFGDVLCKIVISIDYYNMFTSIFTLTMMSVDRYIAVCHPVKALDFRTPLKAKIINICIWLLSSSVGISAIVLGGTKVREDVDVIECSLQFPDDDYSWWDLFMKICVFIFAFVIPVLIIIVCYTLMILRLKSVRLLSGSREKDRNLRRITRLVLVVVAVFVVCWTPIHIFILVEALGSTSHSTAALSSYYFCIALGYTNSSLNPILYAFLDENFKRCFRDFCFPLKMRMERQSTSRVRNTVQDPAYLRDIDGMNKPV
T4 sequence (P51452 whole entry): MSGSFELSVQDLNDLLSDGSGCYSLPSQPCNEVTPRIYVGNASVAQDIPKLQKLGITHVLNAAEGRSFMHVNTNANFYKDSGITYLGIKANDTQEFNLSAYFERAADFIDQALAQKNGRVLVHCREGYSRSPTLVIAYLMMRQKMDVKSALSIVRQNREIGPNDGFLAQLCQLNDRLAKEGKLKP
T1 sequence (Q9UBE0 whole entry): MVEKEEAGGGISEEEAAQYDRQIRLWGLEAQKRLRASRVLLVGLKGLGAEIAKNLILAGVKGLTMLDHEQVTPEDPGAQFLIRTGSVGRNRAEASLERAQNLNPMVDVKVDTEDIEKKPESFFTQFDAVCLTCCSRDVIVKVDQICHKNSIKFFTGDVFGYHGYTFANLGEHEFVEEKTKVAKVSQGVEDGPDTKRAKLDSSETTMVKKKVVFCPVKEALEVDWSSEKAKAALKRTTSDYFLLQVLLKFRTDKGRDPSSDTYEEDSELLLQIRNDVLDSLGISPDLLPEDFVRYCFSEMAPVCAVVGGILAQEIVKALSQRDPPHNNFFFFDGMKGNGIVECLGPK
T1 sequence (Q9UBT2 whole entry): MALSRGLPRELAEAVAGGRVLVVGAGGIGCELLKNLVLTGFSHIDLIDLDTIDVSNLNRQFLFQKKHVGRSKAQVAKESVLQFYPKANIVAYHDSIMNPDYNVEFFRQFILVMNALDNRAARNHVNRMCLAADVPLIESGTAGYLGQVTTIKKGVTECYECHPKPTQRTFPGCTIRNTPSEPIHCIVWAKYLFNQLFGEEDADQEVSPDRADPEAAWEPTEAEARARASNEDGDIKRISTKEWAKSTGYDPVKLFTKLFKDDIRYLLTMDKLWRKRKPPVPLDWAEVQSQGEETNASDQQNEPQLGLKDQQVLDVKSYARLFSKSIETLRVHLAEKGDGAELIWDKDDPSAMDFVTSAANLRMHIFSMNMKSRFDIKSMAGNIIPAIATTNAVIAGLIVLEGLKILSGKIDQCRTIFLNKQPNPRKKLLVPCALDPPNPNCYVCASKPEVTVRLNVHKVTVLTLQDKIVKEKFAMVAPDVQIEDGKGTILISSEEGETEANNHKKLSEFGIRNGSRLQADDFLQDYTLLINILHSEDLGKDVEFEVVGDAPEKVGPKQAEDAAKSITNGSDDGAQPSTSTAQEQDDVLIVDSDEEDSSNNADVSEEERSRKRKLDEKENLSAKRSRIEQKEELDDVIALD
Chain of Glyceraldehyde-3-phosphate dehydrogenase (P04406 whole entry): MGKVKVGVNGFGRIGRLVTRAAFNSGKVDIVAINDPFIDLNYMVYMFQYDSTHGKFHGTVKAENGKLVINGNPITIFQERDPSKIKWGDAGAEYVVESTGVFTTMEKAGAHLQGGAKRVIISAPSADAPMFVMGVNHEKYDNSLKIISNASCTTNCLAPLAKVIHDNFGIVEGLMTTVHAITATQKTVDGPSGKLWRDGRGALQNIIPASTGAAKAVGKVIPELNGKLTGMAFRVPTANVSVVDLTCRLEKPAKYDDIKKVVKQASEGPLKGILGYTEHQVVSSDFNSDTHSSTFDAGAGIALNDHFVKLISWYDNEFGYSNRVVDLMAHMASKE

## O=C(Cn1c2ccccc2c(=O)c2ccccc21)N/N=C/c1cc([N+](=O)[O-])ccc1N1CCCCCC1
SUMO-activating enzyme [1]
  IC50: 6.12 µM (active)
SUMO-activating enzyme [2]
  IC50: 24.9 µM (active)
[3]
  IC50: 1.94 µM (active)

## O=c1c(Br)csn1-c1ccc(Br)cc1
Hexokinase
  IC50: 11.1 µM (active)

## O=C(Nc1ccncc1)c1cc(-c2ccccn2)nc2ccc(Br)cc12
[4]
  IC50: 1.52 µM (active)
[5]
  IC50: 26.3 µM (inactive)
[6]
  IC50: 9.44 µM (active)

## Cc1ccc(OCCOc2ccccc2C(F)(F)F)c([N+](=O)[O-])n1
[7]
  EC50: > 50 µM (inactive)

## CNc1nc(-c2ccccc2)[n+](-c2ccc(C)cc2)s1
[8]
  IC50: 0.278 µM (active)
[9]
  IC50: 4.47 µM (inactive)
[10]
  IC50: 1.4 µM (active)
[11]
  IC50: 10.5 µM (active)
[12]
  IC50: 2.48 µM (active)
Large T antigen
  IC50: 39 µM (active)
[13]
  IC50: 6.89 µM (active)
[14]
  IC50: 1.49 µM (active)
[15]
  IC50: < 0.11 µM (active)

## CC1(C)Cc2c(c(N3CCCC3)nc3sc(C(=O)Nc4ccccc4)c(N)c23)CO1
Caspase-3
  EC50: > 85.3 µM (inactive)
Caspase-7
  EC50: > 85.3 µM (inactive)

## CCCCc1ccc(S(=O)(=O)NCc2ccc(C(=O)NCCN(Cc3ccccc3)C(C)C)cc2)cc1
[16]
  IC50: 0.168 µM (active)
Mu-type opioid receptor
  IC50: > 32 µM (inactive)
[17]
  IC50: 4.73 µM (active)
[18]
  IC50: 3.01 µM (active)
[19]
  IC50: > 32 µM (inactive)

## COc1ccc(NC(=O)Nc2cccnc2)cc1
[20]
  EC50: 203 µM (active)

## O=C(CCc1ccccc1)N/N=C/c1ccc([N+](=O)[O-])o1
Trypanosoma cruzi
  AC50: 0.335 µM (active)
[21]
  AC50: 26.3 µM (active)

## COc1ccc(OC)c(C(=S)NCc2cccc(F)c2)c1
[22]
  IC50: 64 µM (active)
[23]
  IC50: 65.2 µM (active)

## COc1cccc(/C=C/C(=O)c2c(O)cc(C)oc2=O)c1O
Perilipin-1/ABHD5
  IC50: 6.79 µM (active)
[24]
  IC50: 9.96 µM (active)

## CCN(CC)C(=O)CSc1nnc(-c2ccccc2OC)[nH]1
[25]
  IC50: 17.6 µM (active)
[26]
  IC50: > 100 µM (not active)
[27]
  IC50: > 100 µM (inactive)
